From patent US6855730B2, “3-methylidenyl-2-indolinone modulators of protein kinase” (Sugen, Inc., priority 1998, dated 2005)

Tests used:
[1] = target: T1, chimeric receptor containing the EGFR extracellular domain and intracellular HER2 kinase domain (Homo sapiens, UniProt P04626); assay: EGF Receptor-HER2 chimeric receptor assay in whole cells (ELISA); type: cell-based; details: read-out: HER-2 kinase IC50
T1 construct: fused on or other part: EGFR ectodomain + HER2 intracellular part, ATP-site indolinones: HER2's kinase
T1 sequence (P04626 720-1255 limits assumed, change not shown): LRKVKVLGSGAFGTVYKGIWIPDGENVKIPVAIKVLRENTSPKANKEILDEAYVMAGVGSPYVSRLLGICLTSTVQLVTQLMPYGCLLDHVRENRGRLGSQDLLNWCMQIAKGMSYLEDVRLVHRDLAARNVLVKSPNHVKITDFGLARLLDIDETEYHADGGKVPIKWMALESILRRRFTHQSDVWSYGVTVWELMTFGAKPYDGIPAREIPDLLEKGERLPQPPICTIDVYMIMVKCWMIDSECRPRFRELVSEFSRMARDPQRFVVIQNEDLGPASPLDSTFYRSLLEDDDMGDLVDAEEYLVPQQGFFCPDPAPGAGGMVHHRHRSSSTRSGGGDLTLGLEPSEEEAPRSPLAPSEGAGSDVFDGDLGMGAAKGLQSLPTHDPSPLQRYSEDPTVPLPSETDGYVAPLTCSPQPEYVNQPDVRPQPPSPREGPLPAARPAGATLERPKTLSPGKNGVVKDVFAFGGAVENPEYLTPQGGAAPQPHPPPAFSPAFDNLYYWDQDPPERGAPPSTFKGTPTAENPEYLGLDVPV
Procedure, shortened: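 NIH3T3 cells overexpressing EGFR-extracellular/HER2-kinase chimera, seeded in 0.5% serum for ~40 h, were pretreated with compound (1% final DMSO) 2 h at 37 °C, then stimulated with 100 nM EGF for 5 min. Lysates captured on anti-EGFR plates; phosphotyrosine detected by anti-Ptyr/HRP ELISA at 410 nm as percent inhibition.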

[2] = system: A431 cells; assay: A431 growth assay (2% FBS); type: cell-based; details: Homo sapiens, A-431, read-out: A431 growth (2% FBS) IC50

Structure (SMILES)	IC50 [1]	IC50 [2]
CC1(C)CCc2cc(/C=C3/C(=O)Nc4ccc(F)cc43)ccc2O1 [Example 23, 3-(2,2-Dimethylchroman-6-ylmethylene)-5-fluoro-1,3-dihydroindol-2-one]	33.2 µM	14.5 µM
CC1(C)CCc2cc(/C=C3/C(=O)Nc4ccc(Cl)cc43)ccc2O1 [Example 15, 5-Chloro-3-(2,2-dimethyl-chroman-6-ylmethylene)-1,3-dihydroindol-2-one]	19 µM	4.8 µM
COc1cc(C)c(/C=C2/C(=O)Nc3ncccc32)cc1C(C)C [Example 45, 3-(5-Isopropyl-4-methoxy-2-methylbenzylidene)-1,3-dihydro-pyrrolo[2,3-b]pyridin-2-one]	56.9 µM	3.2 µM
COc1cc(C=C2C(=O)Nc3ccccc32)c(-c2ccccc2OC)cc1OC [Example 49, 3-(4,5,2′-Trimethoxybiphenyl-2-ylmethylene)-1,3-dihydroindol-2-one]	65.5 µM	20.7 µM
CC(=O)Nc1ccc2c(c1)NC(=O)/C2=C/c1ccc(OCCN2CCOCC2)c(C2CCCCC2)c1 [Example 16, N-{3-[3-Cyclohexyl-4-(2-morpholin-4-ylethoxy)-benzylidene]-2-oxo-2,3-dihydro-1H-indol-6-yl}-acetamide]	9.9 µM	4.1 µM
COc1ccc(/C=C2/C(=O)Nc3ccc(Cl)cc32)cc1-c1cccs1 [Example 59, 5-chloro-3-(4-Methoxy-3-thiophen-2-ylbenzylidene)-1,3-dihydroindol-2-one]	> 100 µM	6 µM
COc1c(C(C)C)cc(/C=C2/C(=O)Nc3ccc(C(C)=O)cc32)cc1C(C)C [Example 5, 5-Acetyl-3-(3,5-diisopropyl-4-methoxybenzylidene)-1,3dihydroindol-2-one]	6.5 µM	4.3 µM
COc1cc(C)c(C=C2C(=O)Nc3cc(NC(C)=O)ccc32)cc1C(C)C [Example 27, N-[3-(5-Isopropyl-4-methoxy-2-methyl-benzylidene)-2-oxo-2,3-dihydro-1H-indol-6-yl]-acetamide]	15.8 µM	6.4 µM
COc1ccc(/C=C2/C(=O)Nc3cc(NC(C)=O)ccc32)cc1-c1cccs1 [Example 31, N-[3-(4-Methoxy-3-thiophen-2-ylbenzylidene)-2-oxo-2,3-dihydro-1H-indol-6-yl]-acetamide]	12.9 µM	0.3 µM
COc1ccc(/C=C2/C(=O)Nc3cc(NC(C)=O)ccc32)cc1-c1ccsc1 [Example 18, N-[3-(4-Methoxy-3-thiophene-3-ylbenzylidene)-2-oxo-2,3-dihydro-1H-indol-6-yl]-acetamide]	8.4 µM	0.6 µM
COc1ccc(C=C2C(=O)Nc3cc(NC(C)=O)ccc32)cc1-c1cccc(NC(C)=O)c1 (mixture of isomers) [Example 63, N-[3-(3′-Acetylamino-6-methoxybiphenyl-3-ylmethylene)-2-oxo-2,3-dihydro-1H-indol-6-yl]-acetamide]	> 100 µM	11 µM
COc1c(C(C)C)cc(/C=C2/C(=O)Nc3ccc(N)cc32)cc1C(C)C [Example 20, 5-Amino-3-(3,5-diisopropyl-4-methoxy-benzylidene)-1,3-dihydroindol-2-one]	38.6 µM	29.5 µM
COc1c(C(C)C)cc(/C=C2/C(=O)Nc3ccc(C)cc32)cc1C(C)C [Example 19, 3-(3,5-Diisopropyl-4-methoxybenzylidene)-5-methyl-1,3-dihydroindol-2-one]	9.2 µM	4.3 µM
COc1cccc(-c2cc(OC)c(OC)cc2/C=C2/C(=O)Nc3ccc(Cl)cc32)c1 [Example 61, 5-Chloro-3-(4,5-3′-Trimethoxybiphenyl-2-ylmethylene)-1,3-dihydroindol-2-one]	> 100 µM	> 25 µM
COc1ccc(/C=C2/C(=O)Nc3ncccc32)cc1C1CCCC1 [Example 47, 3-(3-Cyclopentyl-4-methoxybenzylidene)-1,3-dihydropyrrolo[2,3-b]pyridin-2-one]	60.6 µM	40.4 µM
Cc1cc(CCC(=O)O)c(/C=C2\C(=O)Nc3ccc(Cl)cc32)[nH]1 [Example 111, 3-[2-(5-Chloro-2-oxo-1,2-dihydroindol-3-ylidenemethyl)-5-methyl-1H-pyrrol-3-yl]propionic acid]	> 100 µM	–
COc1c(C(C)C)cc(/C=C2/C(=O)Nc3ccc(Br)cc32)cc1C(C)C [Example 54, 5-Bromo-3-(3,5-diisopropyl-4-methoxybenzylidene)-1,3-dihydroindol-2-one]	85.6 µM	–
COc1ccc(/C=C2/C(=O)Nc3ccc(F)cc32)cc1C1CCCCC1 [Example 43, 3-(3-Cyclohexyl-4-methoxybenzylidene)-5-fluoro-1,3-dihydroindol-2-one]	52.9 µM	–

Now from value to compound:

IC50 [1]	IC50 [2]	Structure (SMILES)
8.36 µM	0.95 µM	COc1cc(C)c(C=C2C(=O)Nc3ccccc32)cc1C(C)C [Example 8, 3-(5-Isopropyl-4-methoxy-2-methylbenzylidene)-1,3-dihydroindol-2-one]
20.7 µM	> 25 µM	COc1cc(C)c(/C=C2/C(=O)Nc3ccc(Br)cc32)cc1C(C)C [Example 36, 5-Bromo-3-(5-isopropyl-4-methoxy-2-methyl-benzylidene)-1,3-dihydroindol-2-one]
28 µM	9.9 µM	COc1cc(C)c(/C=C2/C(=O)Nc3ccc(F)cc32)cc1C(C)C [Example 30, 5-Fluoro-3-(5-isopropyl-4-methoxy-2-methyl-benzylidene)-1,3-dihydroindol-2-one]
45.8 µM	8.5 µM	COc1ccc(/C=C2/C(=O)Nc3ccccc32)cc1C1CCCC1 [Example 10, 3-(3-Cyclopentyl-4-methoxybenzylidene)-1,3-dihydroindol-2-one]
> 100 µM	1.2 µM	COc1ccc(/C=C2/C(=O)Nc3ccccc32)cc1C(C)C [Example 7, 3-(3-Isopropyl-4-methoxybenzylidene)-1,3-dihydroindol-2-one]
20.7 µM	13.4 µM	COc1ccc(/C=C2/C(=O)Nc3ccccc32)cc1-c1ccsc1 [Example 35, 3-(4-Methoxy-3-thiophen-3-ylbenzylidene)-1,3-dihydroindol-2-one]
> 100 µM	9 µM	COc1ccc(/C=C2/C(=O)Nc3ccc(Br)cc32)cc1-c1ccccc1 [Example 13, 5-Bromo-3-(6-methoxybiphenyl-3-ylmethylene)-1,3-dihydroindol-2-one]
> 100 µM	–	COc1ccc(/C=C2/C(=O)Nc3ncccc32)cc1C(C)C [Example 70, 3-(3-Isopropyl-4-methoxybenzylidene)-1,3-dihydropyrrolo[2,3-b]pyridine-2-one]
53.6 µM	–	COc1ccc(/C=C2/C(=O)Nc3ccc(F)cc32)cc1C(C)C [Example 44, 5-Fluoro-3-(3-isopropyl-4-methoxybenzylidene)-1,3-dihydroindol-2-one]
> 100 µM	–	COc1ccc(/C=C2/C(=O)Nc3ccccc32)cc1-c1ccccc1 [Example 65, 3-(6-Methoxybiphenyl-3-ylmethylene)-1,3-dihydroindol-2-one]
22.5 µM	–	COc1ccc(/C=C2/C(=O)Nc3ccc(F)cc32)cc1-c1ccccc1 [Example 37, 5-Fluoro-3-(6-methoxybiphenyl-3-ylmethylene)-1,3-dihydroindol-2-one]
> 100 µM	–	COc1ccc(/C=C2/C(=O)Nc3ccc(Cl)cc32)cc1-c1ccccc1 [Example 67, 5-Chloro-3-(6-methoxybiphenyl-3-ylmethylene)-1,3-dihydroindol-2-one]
